Laboratory results reported in patent US7601739B2, “Compounds having antiestrogenic and tissue selective estrogenic properties, and compounds with anti-androgenic properties for treatment of prostate cancer and androgen receptor dependent diseases” (Virgina Commonwealth University, priority 2006, dated 2009).
“Also recorded” adds a separate entry of the source.

Target: T1, hERα (Homo sapiens, UniProt P03372)
T1 construct: the full length hERα was inserted into pGAD-GAL4 and pGBD-GAL4 vectors; expressed in transfected cells; host or cells: S. cerevisiae Y190 transformed with pGBT-hER (pGBKT7) and pGAD-hER (pGADT7)
T1 sequence (P03372 1-595) 1: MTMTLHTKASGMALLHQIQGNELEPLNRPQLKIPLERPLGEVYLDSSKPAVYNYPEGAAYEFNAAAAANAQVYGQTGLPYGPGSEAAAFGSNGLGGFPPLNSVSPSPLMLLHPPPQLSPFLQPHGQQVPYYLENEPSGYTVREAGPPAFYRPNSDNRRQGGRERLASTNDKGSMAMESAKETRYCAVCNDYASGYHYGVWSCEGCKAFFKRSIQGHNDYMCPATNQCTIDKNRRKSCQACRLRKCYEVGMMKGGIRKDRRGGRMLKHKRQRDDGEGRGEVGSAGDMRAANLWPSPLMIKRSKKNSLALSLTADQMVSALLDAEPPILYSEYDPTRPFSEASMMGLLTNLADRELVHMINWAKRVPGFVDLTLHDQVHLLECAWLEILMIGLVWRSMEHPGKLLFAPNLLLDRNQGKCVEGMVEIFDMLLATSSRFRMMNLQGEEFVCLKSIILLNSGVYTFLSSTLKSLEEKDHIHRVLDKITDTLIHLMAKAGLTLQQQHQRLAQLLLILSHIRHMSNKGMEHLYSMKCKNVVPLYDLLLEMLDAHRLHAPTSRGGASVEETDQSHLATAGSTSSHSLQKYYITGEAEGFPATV
T1 sequence (P03372 1-595) 2: T1 sequence (P03372 1-595) 1
Assay: Yeast two-hybrid and filter lift assay of hERα dimerization
Assay type: cell-based
Procedure: The transformed yeasts with yeast two-hybrid vectors were cultured in synthetic medium lacking trytophan, and leucine. […] After that, the membranes were soaked in 0.4 ml Z-buffer/Xgal (60 mM Na2HPO4, 40 mM NaH2PO410 mM KCl, 1 mM MgSO4, 0.1% SDS, 50 mM -mercaptoethanol, 20 mM Xgal). The pictures of the results were taken within 2 and 3 hours after the -galactosidase assay was processed.
Dimerization of estrogen receptor plays an essential role in regulating estrogen receptor's functions including DNA binding, transactivation, and coactivator recruitment. In this study, yeast two hybrid and filter lift assays were used to determine the ability of compounds 2 and 6 to interrupt the dimerization of hERα. For setting up yeast two hybrid assay, the full length hERα was inserted into pGAD-GAL4 and pGBD-GAL4 vectors. In pGBD-GAL4, hERα was fused to the GAL4 DNA binding domain through its N terminus. In pGAD-GA14, hERα was fused to the GAL4 activation domain through its N terminus. When the dimerization of hERα occurs mainly through its C terminus, the GAL4 DNA binding domain binds to the repeated GAL4 response element located in front of the β-gal reporter gene and the whole complex, GAL4-BD/hERα/hERα/GAL4-AD, turns on the synthesis of the product of β-gal reporter gene. […] Filter lift assay in which X-gal was used, was employed to qualitatively determine the activity of β-galactosidase.

blue color change of yeast colony in combination with estrogen (estrogen's colony as reference, more blue = less inhibition): slight blue color change
Compound: CCCCNC(=O)CCCCCCCCCCOCC1Cc2ccccc2CN1C(=O)c1cccc(O)c1 (stereo not drawn) [Compound 6]
inhibitory activity against hERα dimerization in combination with estrogen (combined with estrogen): inhibitory activity is higher than tamoxifen's; also recorded: obvious inhibitory activity
induction of hERα dimerization, compound alone (tested alone): did not induce hERα dimerization; also recorded: do not promote the dimerization of hERα
